Legend:
[1] = target: T1, hNurr1_RXRαFL (NURR-1/RXRα heterodimer) (Homo sapiens, UniProt P19793); experiment: Transactivation assay, NURR-1-Gal4/RXRα luciferase reporter in Cos-7 cells; format: cell-based; details: for Emax: COS-7, level of induction relative to XCT0135908 at 2×10^-5 M = 100%, read-out: Eff hNurr1_RXRαFL (efficacy relative to the reference XCT0135908); for EC50: Cos-7 cells, Gal4 luciferase reporter
T1 construct: hNurr1_RXRαFL
Description: (§1) To start with, using an in vitro assay, the capacity of the compounds according to the invention to behave as an activator of the heterodimers formed by the NURR-1 nuclear receptor and the RXR nuclear receptors was measured.
(§2) A transactivation assay was used as a primary screening test. Cos-7 cells were co-transfected with a plasmid expressing a chimera of the human receptor NURR-1-Gal4, a plasmid expressing the RXR human receptor (RXRα or RXRγ receptor) and a reporter plasmid 5Gal4pGL3-TK-Luc. The transfections were carried out using a chemical agent (Jet PEI).
(§3) The transfected cells were distributed in 384-well plates and left to stand for 24 hours.
(§4) After 24 hours, the culture medium was changed. The test products were added (final concentration between 10^−4 and 3.10^−10 M) in the culture medium. After incubation overnight, the expression of luciferase was measured after addition of “SteadyGlo” in accordance with the manufacturer's (Promega) instructions.
(§5) 4-[[6-Methyl-2-phenyl-5-(2-propenyl)-4-pyrimidinyl]amino]benzoic acid (called XCT0135908) at 2×10^−5 M (RXR agonist) was used as reference.
(§6) The levels of induction were calculated in relation to the basal activity of each heterodimer. The results were expressed as a percentage of the level of induction relative to the level of induction obtained with the reference (the level of induction of the reference is arbitrarily equal to 100%).

[2] = Cerebral and plasma pharmacokinetic profile after oral administration in mice; format: in vivo, male C57Bl6 mouse; details: oral administration 10 mg/kg in mice; for Kp: male, C57Bl6, mouse, brain/plasma, read-out: Ratio AUCbrain/AUCplasma; for AUCbrain: AUC0-t, up to 8 h
Description: The protocol used was as follows:
Male C57Bl6 mice (25-30 g) from Janvier, Le Genest-St-Isle, France, were used for this study (12 mice per dose).
The animals were fed with standard rodent feed (Purina Mills, St. Louis, Mo.), and were placed in cages and subjected to 12 h/12 h light/dark cycles, the room temperature being maintained at 22±2° C. and the humidity level at 55±10%.
The mice were not fasted before administration. Water was supplied ad libitum throughout the study.
The test compound was administered orally at 10 mg/kg.
For oral administration at 10 mg/kg, the animals were fed by gavage with 10 mL/kg of a suspension of the test compound, prepared in 1% methylcellulose 400 cp.
The animals were sacrificed under anaesthesia at times 15 min, 30 min, 1 h, 3 h, 6 h and 8 h after gavage.
At each time, and on each sacrificed animal, the blood was collected and the brain was removed.
1 mL of blood collected in 1.5 mL tubes containing 20 μL of evaporated anticoagulant (solution of sodium heparinate at 1000 UI/mL) was centrifuged at 4500 g for 3 min to give approximately 400 μL of plasma. The plasma was divided into 2 aliquots of 200 μL, which were stored at −20° C. until extraction by protein precipitation, followed by analysis by liquid chromatography coupled with tandem mass spectrometry (LC-MS/MS) for the quantification of the test compound.
Immediately after their removal, the brains were plunged into liquid nitrogen and then stored at −20° C. for analysis. The brains were subsequently ground in the presence of aqueous/organic solvent mixture to give a homogenate. These homogenates were subsequently centrifuged and the test compound was extracted from the resulting supernatant, by liquid-liquid extraction, and then quantified by LC-MS/MS.
The pharmacokinetic parameters were determined on the basis of a non-compartmental approach in Excel. The area under the curve (AUC0-t) was determined by the linear trapezoidal method.

[3] = test system: mice treated with 1-methyl-4-phenyl-1,2,3,6-tetrahydropyridine (MPTP); experiment: Neuroprotection in MPTP-treated mice, striatal dopamine; format: in vivo, male C57BL6/J mice; details: oral, twice daily for 11 days; MPTP 20 or 25 mg/kg i.p. for 5 days; FIGS. 1 to 3
Description: The compound of Example 2 was tested on a model of mice treated with 1-methyl-4-phenyl-1,2,3,6-tetrahydropyridine (MPTP), in order to confirm its potential activity. MPTP is a neurotoxin which gives rise to permanent symptoms of Parkinson's disease by destroying certains neurons in the substantia nigra of the brain. The protocol used was as follows.
Male C57BL6/J mice, aged 10-12 weeks at the beginning of the studies, were divided into groups of 8 animals. The compound was administered orally and twice daily for 11 days in total. Administration was commenced 3 days before treatment with the MPTP toxin at 20 or 25 mg/kg. MPTP was administered once daily by intraperitoneal injection for 5 days. The administration of the test compound was continued for 3 days after the treatment with MPTP. One group of mice received the vehicle alone (0.5% methylcellulose solution). The animals were euthanized after the final gavage, and the striatum was removed. The dopamine was extracted from the striatum, and the amount of dopamine (DA), expressed in ng per g of striatum (mean±SEM), was measured by high-performance liquid chromatography (HPLC) with electrochemical detection.
The results obtained were reported in attached FIGS. 1 to 3.

[4] = target: T2, hNurr1_RXRγFL (NURR-1/RXRγ heterodimer) (Homo sapiens, UniProt P48443); experiment: Transactivation assay, NURR-1-Gal4/RXRγ luciferase reporter in Cos-7 cells; format: cell-based; details: for Emax: COS-7, level of induction relative to XCT0135908 at 2×10^-5 M = 100%, read-out: Eff hNurr1_RXRγFL (efficacy relative to the reference XCT0135908); for EC50: Cos-7 cells, Gal4 luciferase reporter
T2 construct: EC50 hNurr1_RXRγFL; other: Cos-7 cells, Gal4 luciferase reporter; other: level of induction relative to XCT0135908 at; hNurr1_RXRγFL
Description: as §1, §2, §3, §4, §5, §6

T2 sequence (P48443 whole entry, the tested form may be a part): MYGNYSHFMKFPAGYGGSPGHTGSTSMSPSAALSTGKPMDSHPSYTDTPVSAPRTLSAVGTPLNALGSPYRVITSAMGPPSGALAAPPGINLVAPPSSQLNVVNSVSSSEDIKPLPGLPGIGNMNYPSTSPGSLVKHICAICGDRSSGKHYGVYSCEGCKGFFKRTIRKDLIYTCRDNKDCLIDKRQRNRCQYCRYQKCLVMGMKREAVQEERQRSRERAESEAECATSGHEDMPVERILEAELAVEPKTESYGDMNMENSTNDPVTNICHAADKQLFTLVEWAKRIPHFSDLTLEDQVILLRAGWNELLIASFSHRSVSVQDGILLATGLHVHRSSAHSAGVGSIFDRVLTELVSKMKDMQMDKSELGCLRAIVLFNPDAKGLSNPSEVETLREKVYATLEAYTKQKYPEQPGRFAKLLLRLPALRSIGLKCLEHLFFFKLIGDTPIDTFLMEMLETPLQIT
T2 sequence (P43354 328-598 partner): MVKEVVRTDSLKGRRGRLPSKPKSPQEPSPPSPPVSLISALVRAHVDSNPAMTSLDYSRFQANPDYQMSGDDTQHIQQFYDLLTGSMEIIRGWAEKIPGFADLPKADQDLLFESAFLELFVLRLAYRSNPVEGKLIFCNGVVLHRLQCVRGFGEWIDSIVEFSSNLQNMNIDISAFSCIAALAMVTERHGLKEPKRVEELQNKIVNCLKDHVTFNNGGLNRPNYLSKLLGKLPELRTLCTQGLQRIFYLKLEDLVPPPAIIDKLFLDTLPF
T1 sequence (P43354 328-598): as the sequence (P43354 328-598 partner) above
T1 sequence (P19793 whole entry, the tested form may be a part): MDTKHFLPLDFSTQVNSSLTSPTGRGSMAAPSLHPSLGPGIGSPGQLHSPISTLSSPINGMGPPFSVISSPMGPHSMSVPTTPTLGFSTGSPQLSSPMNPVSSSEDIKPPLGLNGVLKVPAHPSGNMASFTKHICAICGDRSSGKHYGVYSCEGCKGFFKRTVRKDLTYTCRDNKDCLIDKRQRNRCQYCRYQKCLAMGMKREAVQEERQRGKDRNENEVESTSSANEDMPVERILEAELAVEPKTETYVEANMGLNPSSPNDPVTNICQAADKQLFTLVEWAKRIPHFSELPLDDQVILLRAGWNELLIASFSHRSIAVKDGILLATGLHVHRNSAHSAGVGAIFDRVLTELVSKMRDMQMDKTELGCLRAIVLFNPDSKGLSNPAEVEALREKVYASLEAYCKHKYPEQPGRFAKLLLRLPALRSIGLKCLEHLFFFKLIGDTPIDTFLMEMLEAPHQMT

| Emax [1] [%] | EC50 [1] [nM] | Kp [2] | AUCbrain [2] | Emax [4] [%] | EC50 [4] [nM] | SMILES | Effect on MPTP-induced reduction of dopamine level in the striatum [3] |
| --- | --- | --- | --- | --- | --- | --- | --- |
| 86 | 73 | 0.67 | 3318 | 79 | 113 | CC(C)c1cccc(S(=O)(=O)n2c(CCCC(=O)O)cc3cc(C(F)(F)F)ccc32)c1 [Example 2, 1-[[3-(1-Methylethyl)phenyl]sulphonyl]-5-(trifluoromethyl)-1H-indole-2-butanoic acid] | reduce, in a dose-dependent way, the action of MPTP |
| 100 | 26 | 0.87 | 2371 | 70 | 20 | CC(C)(C)c1cccc(S(=O)(=O)n2c(CCCC(=O)O)cc3cc(C(F)(F)F)ccc32)c1 [Example 8, 1-[[3-(1,1-Dimethylethyl)phenyl]sulphonyl]-5-(trifluoromethyl)-1H-indole-2-butanoic acid] | reduce, in a dose-dependent way, the action of MPTP |
| 104 | 55 | 0.8 | 1689 | 88 | 77 | CC(C)(C)c1cccc(S(=O)(=O)n2c(CCCCC(=O)O)cc3cc(C(F)(F)F)ccc32)c1 [Example 10, 1-[[3-(1,1-Dimethylethyl)phenyl]sulphonyl]-5-(trifluoromethyl)-1H-indole-2-pentanoic acid] | reduce, in a dose-dependent way, the action of MPTP |

Reference: patent publication US8575210B2, “Use of indole derivatives as NURR-1 activators for treating parkinson's disease” (Laboratoires Fournier SA, priority 2008, dated 2013)
